Results taken from ChEMBL document CHEMBL2413072, “Synthesis and in vitro anticancer studies of novel C-2 arylidene congeners of lantadenes” (2013).
Active and inactive are the calls of the source. The calls are words filed in the database; no cut-off is given here.

Columns and labels:
Format in all cases: functional
[1] = test system: K562; experiment: Growth inhibition of human K562 cells assessed as cell growth at 10 uM by sulforhodamine B assay; settings: read-out: Activity
[2] = test system: NCI-H322M; experiment: Growth inhibition of human NCI-H322M cells assessed as growth inhibition at 10 uM by sulforhodamine B assay
[3] = test system: U-251; experiment: Growth inhibition of human U251 cells assessed as growth inhibition at 10 uM by sulforhodamine B assay; settings: read-out: GI
[4] = test system: U-251; experiment: Growth inhibition of human U251 cells assessed as cell growth at 10 uM by sulforhodamine B assay; settings: read-out: Activity
[5] = test system: NCI-H226; experiment: Growth inhibition of human NCI-H226 cells assessed as cell growth at 10 uM by sulforhodamine B assay; settings: read-out: Activity
[6] = test system: OVCAR-5; experiment: Growth inhibition of human OVCAR5 cells assessed as cell growth at 10 uM by sulforhodamine B assay; settings: read-out: Activity
[7] = test system: SNB-19; experiment: Growth inhibition of human SNB19 cells assessed as growth inhibition at 10 uM by sulforhodamine B assay
[8] = test system: LOX IMVI; experiment: Growth inhibition of human LOXIMVI cells assessed as growth inhibition at 10 uM by sulforhodamine B assay; settings: read-out: GI
[9] = test system: MCF7; experiment: Growth inhibition of human MCF7 cells assessed as cell growth at 10 uM by sulforhodamine B assay; settings: read-out: Activity
[10] = test system: CCRF-CEM; experiment: Growth inhibition of human CCRF-CEM cells assessed as growth inhibition at 10 uM by sulforhodamine B assay; settings: read-out: GI
[11] = test system: MOLT-4; experiment: Growth inhibition of human MOLT4 cells assessed as growth inhibition at 10 uM by sulforhodamine B assay; settings: read-out: GI
[12] = test system: HOP-92; experiment: Growth inhibition of human HOP92 cells assessed as growth inhibition at 10 uM by sulforhodamine B assay
[13] = test system: SK-MEL-2; experiment: Growth inhibition of human SK-MEL-2 cells assessed as cell growth at 10 uM by sulforhodamine B assay; settings: read-out: Activity
[14] = test system: RPMI-8226; experiment: Growth inhibition of human RPMI8226 cells assessed as growth inhibition at 10 uM by sulforhodamine B assay; settings: read-out: GI
[15] = test system: Malme-3M; experiment: Growth inhibition of human MALME-3M cells assessed as cell growth at 10 uM by sulforhodamine B assay; settings: read-out: Activity
[16] = test system: A549; experiment: Growth inhibition of human A549/ATCC cells assessed as growth inhibition at 10 uM by sulforhodamine B assay; settings: read-out: GI
[17] = test system: RPMI-8226; experiment: Growth inhibition of human RPMI8226 cells assessed as cell growth at 10 uM by sulforhodamine B assay; settings: read-out: Activity
[18] = test system: SW-620; experiment: Growth inhibition of human SW620 cells assessed as cell growth at 10 uM by sulforhodamine B assay; settings: read-out: Activity
[19] = test system: HL-60(TB); experiment: Growth inhibition of human HL-60(TB) cells assessed as cell growth at 10 uM by sulforhodamine B assay; settings: read-out: Activity
[20] = test system: Malme-3M; experiment: Growth inhibition of human MALME-3M cells assessed as growth inhibition at 10 uM by sulforhodamine B assay; settings: read-out: GI
[21] = test system: RXF 393; experiment: Growth inhibition of human RXF393 cells assessed as growth inhibition at 10 uM by sulforhodamine B assay; settings: read-out: GI
[22] = test system: MOLT-4; experiment: Growth inhibition of human MOLT4 cells assessed as cell growth at 10 uM by sulforhodamine B assay; settings: read-out: Activity
[23] = test system: DU-145; experiment: Growth inhibition of human DU145 cells assessed as cell growth at 10 uM by sulforhodamine B assay; settings: read-out: Activity
[24] = test system: K562; experiment: Growth inhibition of human K562 cells assessed as growth inhibition at 10 uM by sulforhodamine B assay; settings: read-out: GI
[25] = test system: UACC-257; experiment: Growth inhibition of human UACC257 cells assessed as cell growth at 10 uM by sulforhodamine B assay; settings: read-out: Activity
[26] = test system: MDA-MB-435; experiment: Growth inhibition of human MDA-MB-435 cells assessed as growth inhibition at 10 uM by sulforhodamine B assay; settings: read-out: GI
[27] = test system: MDA-MB-468; experiment: Growth inhibition of human MDA-MB-468 cells assessed as growth inhibition at 10 uM by sulforhodamine B assay; settings: read-out: GI
[28] = test system: NCI-H226; experiment: Growth inhibition of human NCI-H226 cells assessed as growth inhibition at 10 uM by sulforhodamine B assay; settings: read-out: GI
[29] = test system: HCT-15; experiment: Growth inhibition of human HCT15 cells assessed as growth inhibition at 10 uM by sulforhodamine B assay; settings: read-out: GI
[30] = test system: SK-MEL-28; experiment: Growth inhibition of human SK-MEL-28 cells assessed as cell growth at 10 uM by sulforhodamine B assay; settings: read-out: Activity
[31] = test system: OVCAR-4; experiment: Growth inhibition of human OVCAR4 cells assessed as cell growth at 10 uM by sulforhodamine B assay; settings: read-out: Activity
[32] = test system: T47D; experiment: Growth inhibition of human T47D cells assessed as growth inhibition at 10 uM by sulforhodamine B assay; settings: read-out: GI
[33] = test system: HOP-92; experiment: Growth inhibition of human HOP92 cells assessed as cell growth at 10 uM by sulforhodamine B assay; settings: read-out: Activity
[34] = test system: SF-268; experiment: Growth inhibition of human SF268 cells assessed as growth inhibition at 10 uM by sulforhodamine B assay; settings: read-out: GI
[35] = test system: HCT-15; experiment: Growth inhibition of human HCT15 cells assessed as cell growth at 10 uM by sulforhodamine B assay; settings: read-out: Activity
[36] = test system: A498; experiment: Growth inhibition of human A498 cells assessed as cell growth at 10 uM by sulforhodamine B assay; settings: read-out: Activity
[37] = test system: NCI-H322M; experiment: Growth inhibition of human NCI-H322M cells assessed as cell growth at 10 uM by sulforhodamine B assay; settings: read-out: Activity
[38] = test system: M14; experiment: Growth inhibition of human M14 cells assessed as cell growth at 10 uM by sulforhodamine B assay; settings: read-out: Activity
[39] = test system: PC-3; experiment: Growth inhibition of human PC3 cells assessed as cell growth at 10 uM by sulforhodamine B assay; settings: read-out: Activity
[40] = Growth inhibition of human HCC2998 cells assessed as growth inhibition at 10 uM by sulforhodamine B assay; settings: HCC 2998, read-out: GI
[41] = test system: UACC-62; experiment: Growth inhibition of human UACC62 cells assessed as cell growth at 10 uM by sulforhodamine B assay; settings: read-out: Activity
[42] = test system: NCI-H522; experiment: Growth inhibition of human NCI-H522 cells assessed as growth inhibition at 10 uM by sulforhodamine B assay; settings: read-out: GI
[43] = test system: PC-3; experiment: Growth inhibition of human PC3 cells assessed as growth inhibition at 10 uM by sulforhodamine B assay; settings: read-out: GI
[44] = test system: M14; experiment: Growth inhibition of human M14 cells assessed as growth inhibition at 10 uM by sulforhodamine B assay; settings: read-out: GI
[45] = test system: TK-10; experiment: Growth inhibition of human TK10 cells assessed as growth inhibition at 10 uM by sulforhodamine B assay; settings: read-out: GI
[46] = test system: SK-MEL-28; experiment: Growth inhibition of human SK-MEL-28 cells assessed as growth inhibition at 10 uM by sulforhodamine B assay; settings: read-out: GI
[47] = test system: A549; experiment: Growth inhibition of human A549/ATCC cells assessed as cell growth at 10 uM by sulforhodamine B assay; settings: read-out: Activity
[48] = test system: SF-295; experiment: Growth inhibition of human SF295 cells assessed as growth inhibition at 10 uM by sulforhodamine B assay

SMILES: C/C=C(/C)C(=O)O[C@@H]1CC(C)(C)C[C@H]2C3=CC[C@@H]4[C@@]5(C)CC[C@H](O)C(C)(C)[C@@H]5CC[C@@]4(C)[C@]3(C)CC[C@@]12C(=O)O [Reduced Lantadene A]
- growth at 10 µM [1]: 35.9%
- growth inhibition (GI) [2]: Active
- inhibition of growth at 10 µM [3]: 61.8%
- growth at 10 µM [4]: 38.2%
- growth at 10 µM [5]: 42.1%
- growth at 10 µM [6]: 64%
- growth inhibition (GI) [7]: Active
- inhibition of growth at 10 µM [8]: 57.3%
- growth at 10 µM [9]: 61%
- inhibition of growth at 10 µM [10]: 54.2%
- inhibition of growth at 10 µM [11]: 58.6%
- growth inhibition (GI) [12]: Active
- growth at 10 µM [13]: 54.1%
- inhibition of growth at 10 µM [14]: 78.9%
- growth at 10 µM [15]: 35.2%
- inhibition of growth at 10 µM [16]: 72.6%
- growth at 10 µM [17]: 21.1%
- growth at 10 µM [18]: 39.1%
- growth at 10 µM [19]: -50.8%
- inhibition of growth at 10 µM [20]: 64.8%
- inhibition of growth at 10 µM [21]: 77.2%
- growth at 10 µM [22]: 41.4%
- growth at 10 µM [23]: 74.9%
- inhibition of growth at 10 µM [24]: 64.1%
- growth at 10 µM [25]: 60.6%
- inhibition of growth at 10 µM [26]: 35.1%
- inhibition of growth at 10 µM [27]: 33.9%
- inhibition of growth at 10 µM [28]: 57.9%
- inhibition of growth at 10 µM [29]: 78.8%
- growth at 10 µM [30]: 33.7%
- growth at 10 µM [31]: 63.2%
- inhibition of growth at 10 µM [32]: 24.3%
- growth at 10 µM [33]: -54.2%
- inhibition of growth at 10 µM [34]: 74.1%
- growth at 10 µM [35]: 21.2%
- growth at 10 µM [36]: -31.8%
- growth at 10 µM [37]: -8.43%
- growth at 10 µM [38]: 28.7%
- growth at 10 µM [39]: 33.3%
- inhibition of growth at 10 µM [40]: 73.6%
- growth at 10 µM [41]: -28.1%
- inhibition of growth at 10 µM [42]: 50.3%
- inhibition of growth at 10 µM [43]: 66.7%
- inhibition of growth at 10 µM [44]: 71.3%
- inhibition of growth at 10 µM [45]: 33.2%
- inhibition of growth at 10 µM [46]: 66.3%
- growth at 10 µM [47]: 27.4%
- growth inhibition (GI) [48]: Active
